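These data come from cells grown in 96-well plates and exposed to compound for 48 hours at five concentrations. Abbreviation: GI50, concentration required for 50% inhibition of growth. TGI denotes the concentration required for complete inhibition of growth.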
What follows are molecules tested on T-47D breast (assay: growth of human tumour cells (NCI), 48 h).
CN1CCN(CCCOc2ccc3nc(Nc4ccc(Cl)c(C(F)(F)F)c4)ccc3c2)CC1 showed a GI50 of 17.6 µM and a TGI of 37.3 µM. CC(C)n1nc(-c2cc3cc(O)ccc3[nH]2)c2c(N)ncnc21 gave a GI50 of 0.0435 µM and a TGI of 0.417 µM. Molecule CCCCC(O)(c1ccc(Cl)cc1)C(CN1CCOCC1)c1ccc(Cl)cc1 (centres undefined) has a GI50 of 11.3 µM and a TGI of 25 µM. With NCC1Nc2ccccc2[C@@H](O)C1O (some centres undefined) the TGI was over 100 µM. For OC[C@H]1CCCC1O (some centres undefined), the TGI was over 100 µM. Molecule Cc1cccc(N2CCN(C(=S)c3ccc4c(c3)OCO4)CC2)c1 has a GI50 of 0.934 µM and a TGI of over 100 µM. Cc1cc(C(=O)Nc2ncc(Cc3cccc(C(F)(F)F)c3)s2)c2ccccc2n1 showed a GI50 of 0.181 µM and a TGI of over 100 µM. With O=C1OC(C(O)CO)C(=O)C1=O (centres undefined) the GI50 was 2790 µM and the TGI was 7700 µM. COc1ccc(/C=C/c2ccnc3ccccc23)c(OC)c1 gave a TGI of over 10 µM. Cc1ccc(C(=O)CN(/C=C/C(=O)C(F)(F)F)c2ccc(S(N)(=O)=O)cc2)cc1 was tested, and the GI50 was 70.1 µM and the TGI was over 100 µM. Molecule CC(=O)/C(C)=N/NC(=O)c1ccccc1O has a TGI of over 100 µM. Clc1ccc(C2=Nn3c(COc4ccccc4Cl)nnc3SC2)c(Cl)c1 gave a GI50 of 14 µM and a TGI of 51.5 µM. CCOC(=O)c1c(C)n(Cc2ccc(Cl)cc2Cl)c2c1c(CN(C)C)c(O)c1[nH]cnc12 gave a GI50 of 3.55 µM and a TGI of 15.2 µM. For COc1cccc2c1C(=O)c1c(O)c3c(c(O)c1C2=O)C[C@@](O)(C(C)=O)C[C@@H]3OC1OC(C)C(O)C(N)C1Br (some centres undefined), the TGI was 0.74 µM. Molecule COc1ccc(Cn2cc3c(c2-c2ccccc2)CC(C)(C)c2cnoc2-3)cc1 has a GI50 of 2.51 µM and a TGI of over 100 µM. Oc1cccnc1CN1CCCCC1 showed a TGI of over 100 µM.

The molecules below were run on HL-60(TB) leukemia (assay: growth of human tumour cells (NCI), 48 h).
CN1CCN(CCCOc2ccc3nc(Nc4ccc(Cl)c(C(F)(F)F)c4)ccc3c2)CC1 gave a GI50 of 13.9 µM and a TGI of 31.1 µM. For CC(C)n1nc(-c2cc3cc(O)ccc3[nH]2)c2c(N)ncnc21, the GI50 was 1.26 µM and the TGI was 5.77 µM. For CCCCC(O)(c1ccc(Cl)cc1)C(CN1CCOCC1)c1ccc(Cl)cc1 (centres undefined), the GI50 was 16.7 µM and the TGI was 39.5 µM. In the case of NCC1Nc2ccccc2[C@@H](O)C1O (some centres undefined), the TGI is reported as over 100 µM. OC[C@H]1CCCC1O (some centres undefined) showed a TGI of over 100 µM. In the case of Cc1cccc(N2CCN(C(=S)c3ccc4c(c3)OCO4)CC2)c1, the GI50 is reported as 0.659 µM and the TGI is reported as 19 µM. Cc1cc(C(=O)Nc2ncc(Cc3cccc(C(F)(F)F)c3)s2)c2ccccc2n1 gave a GI50 of 2.21 µM and a TGI of 5.38 µM. O=C1CCN2C(=O)CCN12 was tested, and the TGI was over 100 µM. For COc1ccc(/C=C/c2ccnc3ccccc23)c(OC)c1, the TGI was 6.91 µM. For Cc1ccc(C(=O)CN(/C=C/C(=O)C(F)(F)F)c2ccc(S(N)(=O)=O)cc2)cc1, the GI50 was 41.1 µM and the TGI was over 100 µM. Work on Clc1nc(Cl)c(Cl)c(-c2ccccc2)n1 yielded a TGI of over 100 µM. CC1CC[C@]2(C(=O)O)CCC3(C)C(=CC(=O)C4[C@@]5(C)CCC(=O)C(C)(C)C5CC[C@]43C)[C@@H]2[C@H]1C (some centres undefined) showed a TGI of 24.7 µM. COc1cc2c(cc1OC)C(CC(=O)NN=C(C)C)NCC2 (centres undefined) was tested, and the TGI was over 100 µM. CC(=O)[O-].CCN(CC)c1ccc(C=NCCN=Cc2ccc(N(CC)CC)cc2[O-])c([O-])c1.[Mn+3] gave a GI50 of 17.6 µM and a TGI of 38.3 µM. Clc1ccc(C2=Nn3c(COc4ccccc4Cl)nnc3SC2)c(Cl)c1 gave a GI50 of 19.4 µM and a TGI of 75.4 µM. CCC[CH2][Sn]1([CH2]CCC)[O]CC(CN2CCCC2)[O]1 (centres undefined) gave a GI50 of 3.87 µM and a TGI of 15.2 µM. Molecule CCOC(=O)c1c(C)n(Cc2ccc(Cl)cc2Cl)c2c1c(CN(C)C)c(O)c1[nH]cnc12 has a GI50 of 2.01 µM and a TGI of 8.33 µM. Molecule CCOc1ccccc1NC(=O)CC(C(=O)OC)C(=O)C(=O)OC (centres undefined) has a TGI of over 100 µM. In the case of COC(=O)C1=C(C)N(NC(=O)OC(C)(C)C)C(=O)C1=P(c1ccccc1)(c1ccccc1)c1ccccc1, the TGI is reported as over 100 µM. For O=C1OC(c2ccccc2)=N/C1=C\c1cccc2ccccc12, the TGI was over 100 µM. In the case of C[C@@H]1CC(=O)C2CCCC1C2=O (some centres undefined), the TGI is reported as over 100 µM. In the case of COc1ccc(Cn2cc3c(c2-c2ccccc2)CC(C)(C)c2cnoc2-3)cc1, the GI50 is reported as 0.82 µM and the TGI is reported as 4.29 µM.

These molecules were tested on SR leukemia (assay: growth of human tumour cells (NCI), 48 h).
With CN1CCN(CCCOc2ccc3nc(Nc4ccc(Cl)c(C(F)(F)F)c4)ccc3c2)CC1 the GI50 was 2.7 µM and the TGI was 10.7 µM. Molecule CC(C)n1nc(-c2cc3cc(O)ccc3[nH]2)c2c(N)ncnc21 has a GI50 of 0.191 µM and a TGI of 2.93 µM. With CCCCC(O)(c1ccc(Cl)cc1)C(CN1CCOCC1)c1ccc(Cl)cc1 (centres undefined) the GI50 was 12.5 µM and the TGI was 32.3 µM. NCC1Nc2ccccc2[C@@H](O)C1O (some centres undefined) gave a TGI of over 100 µM. OC[C@H]1CCCC1O (some centres undefined) was tested, and the TGI was over 100 µM. Work on Cc1cccc(N2CCN(C(=S)c3ccc4c(c3)OCO4)CC2)c1 yielded a GI50 of 0.557 µM and a TGI of over 100 µM. Molecule Cc1cc(C(=O)Nc2ncc(Cc3cccc(C(F)(F)F)c3)s2)c2ccccc2n1 has a GI50 of 2.02 µM and a TGI of over 100 µM. Molecule O=C1CCN2C(=O)CCN12 has a TGI of over 100 µM. For O=C1OC(C(O)CO)C(=O)C1=O (centres undefined), the GI50 was 3860 µM and the TGI was over 10000 µM. In the case of CC1CC[C@]2(C(=O)O)CCC3(C)C(=CC(=O)C4[C@@]5(C)CCC(=O)C(C)(C)C5CC[C@]43C)[C@@H]2[C@H]1C (some centres undefined), the TGI is reported as 37.5 µM. Molecule COc1cc2c(cc1OC)C(CC(=O)NN=C(C)C)NCC2 (centres undefined) has a TGI of over 100 µM. Work on CC(=O)/C(C)=N/NC(=O)c1ccccc1O yielded a TGI of over 100 µM. For CC(=O)[O-].CCN(CC)c1ccc(C=NCCN=Cc2ccc(N(CC)CC)cc2[O-])c([O-])c1.[Mn+3], the GI50 was 22.3 µM and the TGI was 67.4 µM. With CCC[CH2][Sn]1([CH2]CCC)[O]CC(CN2CCCC2)[O]1 (centres undefined) the GI50 was 10.4 µM and the TGI was 39.5 µM. CCOC(=O)c1c(C)n(Cc2ccc(Cl)cc2Cl)c2c1c(CN(C)C)c(O)c1[nH]cnc12 gave a GI50 of 0.557 µM and a TGI of 4.76 µM. In the case of CCOc1ccccc1NC(=O)CC(C(=O)OC)C(=O)C(=O)OC (centres undefined), the TGI is reported as over 100 µM.

Reference: PubChem BioAssay (NCI)
